Experimental data taken from the NIST ThermoML archive (doi:10.1016/j.jct.2006.01.007).
± gives the expanded uncertainty stated by the source.

Assay: xn = mol fraction of the nth substance listed
Details: 101 kPa, Liquid; for speed of sound: Sing-around technique in a fixed-path interferometer

CC(C)(C)O [2-methylpropan-2-ol] + O
x2 = 0.9615
Details	mass density [kg/m3]	speed of sound [m/s]
288.15 K	980.2 ± 0.5	1613.7 ± 0.79
293.15 K	978.4 ± 0.5	1612.4 ± 0.79
298.15 K	976.6 ± 0.5	1610 ± 0.79
303.15 K	973.6 ± 0.5	1606.5 ± 0.79
308.15 K	971.5 ± 0.5	1602.5 ± 0.79
313.15 K	968.8 ± 0.5	1597 ± 0.79

C[S+](C)[O-] [dimethyl sulfoxide] + O
x1 = 0.0385
Details	mass density [kg/m3]	speed of sound [m/s]
288.15 K	1019.8 ± 0.5	1555.2 ± 0.78
293.15 K	1018.1 ± 0.5	1562.5 ± 0.78
298.15 K	1016.2 ± 0.5	1568.5 ± 0.78
303.15 K	1014.4 ± 0.5	1573.4 ± 0.78
308.15 K	1012.3 ± 0.5	1577 ± 0.78
313.15 K	1010.2 ± 0.5	1579.4 ± 0.78
